Tests used:
[1] = Non-targeted analysis of plasma and liver (in vivo); set-up: species or system Sprague Dawley rats; settings: for relative peak area abundance (RA) vs. HFPO-TeA, Plasma: 5 days, mean ± SD n=8
Protocol: Extracts of plasma (50 µL), liver (10 mg), and hepatocyte metabolism assay media (10 µL) were analyzed by high-resolution, accurate mass non-targeted analysis (NTA) for the detection and identification of potential biotransformation products of HFPO-TeA. A mixture of ^13C-labeled PFAS compounds (MPAC-C-ES, Wellington Laboratories, Guelph, ON, Canada) were used as tracers. Samples were extracted, as detailed above (in vivo) and below (in vitro), and then analyzed in triplicate in a randomized order on a Sciex X500R QTOF. Additional information on NTA instrumental analysis and data processing parameters is presented in Supplementary Text S8 and Tables S8 and S10 [52]. […] A screening list of potential biotransformation products was generated using the U.S. EPA web application CTS: Chemical Transformation Simulator 1.0 and Biotransformer 3.0 [53, 54]. In some instances, molecular structure predictions were performed using MetFrag. […]
tube, and then further crashed with 200 µL ACN. This was repeated twice more to generate a final combined supernatant volume of 600 µL. Supernatants were stored at -20 °C prior to analysis.
Samples were quantitated against matrix-matched calibration curves containing a minimum of 5 points spanning the range 0.99 – 141 ng/mg liver (wet weight, ww). For the calibration standards, commercial rat liver (BioIVT) was spiked with HFPO-TeA and PFHxDA, homogenized, and extracted using the above procedure. […]
Support ing Text S8: Non- Target ed Analysis Met hod and Data Processing Each sample batch included a mobile phase blank and solvent blank to monitor for the presence of laboratory contamination, and a system suitability sample consisting of the set of isotopically labeled PFAS tracer compounds spiked into extraction solvent to monitor instrument performance prior to sample analysis. […] A high-resolution, exact mass spectral library created in house from IDA scans of commercially available PFAS standards analyzed on the same mass spectrometer as the samples and using the same instrument parameters was used for library searches. […]

[2] = system: hepatocytes; assay: Hepatic metabolite formation assay with non-targeted analysis; assay type: in vitro ADME, human and rat
Protocol: Extracts of plasma (50 µL), liver (10 mg), and hepatocyte metabolism assay media (10 µL) were analyzed by high-resolution, accurate mass non-targeted analysis (NTA) for the detection and identification of potential biotransformation products of HFPO-TeA. A mixture of ^13C-labeled PFAS compounds (MPAC-C-ES, Wellington Laboratories, Guelph, ON, Canada) were used as tracers. Samples were extracted, as detailed above (in vivo) and below (in vitro), and then analyzed in triplicate in a randomized order on a Sciex X500R QTOF. Additional information on NTA instrumental analysis and data processing parameters is presented in Supplementary Text S8 and Tables S8 and S10 [52]. […] A screening list of potential biotransformation products was generated using the U.S. EPA web application CTS: Chemical Transformation Simulator 1.0 and Biotransformer 3.0 [53, 54]. In some instances, molecular structure predictions were performed using MetFrag.
For the hepatic metabolite formation assays, the procedure described above was followed with the following modifications: assay concentrations of 50 and 100 µM were used, and samples were collected at times T0, T30, T60, and T120 min. Aliquots (10 µL) were combined with an equal volume of H2O. Non-targeted screening of potential biotransformation or degradation products of these samples was performed on the Sciex instrumentation described above.

Structure (SMILES)	presence of predicted conjugates (non-targeted analysis) ([1]; plasma or liver)	presence of predicted biotransformation products (non-targeted analysis) ([2]; in vitro hepatocyte assays)	relative peak area abundance (RA) vs. HFPO-TeA, Plasma ([1]; HFPO-TeA dose 6.3 mg/kg/day)	relative peak area abundance (RA) vs. HFPO-TeA, Plasma ([1]; HFPO-TeA dose 17 mg/kg/day)	abundance relative to HFPO-TeA ([2]; T0 active hepatocyte preparation) [%]
O=C(O)C(F)(OC(F)(F)C(F)(OC(F)(F)C(F)(OC(F)(F)C(F)(F)C(F)(F)F)C(F)(F)F)C(F)(F)F)C(F)(F)F (centres unmarked) [HFPO-TeA, perfluoro-(2,5,8-trimethyl-3,6,9-trioxadodecanoic) acid]	No ions that suggested the presence of the three predicted HFPO-TeA conjugates were observed	None of the biotransformation products predicted using CTS were observed			
O=C(O)C(F)(OC(F)(F)C(F)(OC(F)(F)C(F)(F)C(F)(F)F)C(F)(F)F)C(F)(F)F (centres unmarked) [HFPO-TA, perfluoro-(2,5-dimethyl-3,6-dioxanonanoic) acid]			0.05 ± 0.04	1.83 ± 0.85	< 1

— paper PMC10747602, “Dose Response, Dosimetric, and Metabolic Evaluations of Replacement PFAS Perfluoro-(2,5,8-trimethyl-3,6,9-trioxadodecanoic) Acid (HFPO-TeA)” (Toxics, 2023)
